Source: patent publication US20090281142A1, “THIAZOLE DERIVATIVE” (ASTELLAS PHARMA INC., priority 2005, published 2009)

Assays:
[1] = tested on: ICR mice; experiment: Action upon high blood glucose level after oral glucose loading in ICR mice; type: in vivo; conditions: 3 mg/kg oral, fasted ICR mice, AUC of blood glucose from administration until 2 hours after oral glucose loading (2 g/kg) vs solvent control
Method: After overnight fasting, body weights of ICR mice (N=5) were measured. Each test compound was dissolved in Cremophor solvent (Cremophor:DMSO:Water 5:5:90, v/v/v) to a concentration of 0.3 mg/ml. To each mouse was orally administered 10 ml/kg of the agent liquid (corresponds to the test compound of 3 mg/kg) or 10 ml/kg of the solvent control. Just before the administration of the test compound, about 60 μl of blood was collected from the venous plexus of the fundus of the eye using a capillary. After 30 minutes of the administration of the test compound, 200 mg/ml of glucose aqueous solution was orally administered at a dose of 10 ml/kg (corresponds to 2 g/kg). Just before the administration of glucose, about 60 μl of blood was collected from the venous plexus of the fundus of the eye using a capillary. Blood was collected in the same manner after 0.5, 1 and 2 hours of the glucose administration. Blood plasma was separated from the thus collected blood to measure the blood glucose level. AUC of the blood glucose level after the administration of the test compound until 2 hours after the glucose loading was compared with AUC of the solvent control group within the same period of time.

[2] = target: T1, recombinant human liver GK (GST-hGK2) (Homo sapiens, UniProt P35557); experiment: Measurement of GK activation; type: biochemical; conditions: 10 min; 10 μM test agent, 5 mM glucose, increase of absorbance (340 nm) in first 10 minutes relative to DMSO control
T1 construct: cloning of ORF (open reading frame) was carried out by the following procedure based on AK122876.1; made in house; host or cells: E. coli
T1 sequence (P35557 1-466 isoform P35557-2): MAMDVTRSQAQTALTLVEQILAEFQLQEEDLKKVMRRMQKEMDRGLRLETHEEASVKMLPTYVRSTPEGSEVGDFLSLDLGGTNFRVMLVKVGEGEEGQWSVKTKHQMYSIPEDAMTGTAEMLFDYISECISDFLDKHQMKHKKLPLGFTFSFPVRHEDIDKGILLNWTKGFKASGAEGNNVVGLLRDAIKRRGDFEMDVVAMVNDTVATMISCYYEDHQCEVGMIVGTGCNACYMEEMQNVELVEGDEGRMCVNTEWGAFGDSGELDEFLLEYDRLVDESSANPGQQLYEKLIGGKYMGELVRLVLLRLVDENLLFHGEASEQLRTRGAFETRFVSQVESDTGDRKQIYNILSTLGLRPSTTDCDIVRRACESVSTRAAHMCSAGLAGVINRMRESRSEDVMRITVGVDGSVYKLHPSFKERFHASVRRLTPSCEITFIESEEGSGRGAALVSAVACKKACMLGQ
Method: Measurement of the GK activation by test agents was carried out in accordance with the method described in Science 301: 370-373, 2003, and by partially modifying this. The GK activity was measured as a change in absorbance based on the amount of NADPH which is converted from NADP (nicotinamide adenine dinucleotide phosphate) when glucose 6-phosphate produced by GK using glucose as the substrate is […] glucose-6-phosphate dehydrogenase.
Regarding the recombinant human liver GK (GST-hGK2) to be used in this assay, it was used by expressing as GST (glutathione S transferase)-fusion protein in E. coli and purifying by a Glutathione Sepharose column.
Regarding the sequence of glucokinase isoform 2, cloning of ORF (open reading frame) was carried out by the following procedure based on AK122876.1 (accession number). Using pME18S-FL3-Glucokinase isoform 2 as the template, PCR (polymerase chain reaction) was carried out using 5′-[…]-3′(SEQ ID NO:1) as the 5′ primer and 5′-[…]-3′ (SEQ ID NO:2) as the 3′ primer, and the PCR product was TA-cloned into pGEM-T easy vector. The sequence of this clone was confirmed by carrying out its sequencing. Thereafter, a fragment digested with EcoRI and XhoI was ligated to a vector pGEX-5X-1 digested in the same manner to prepare pGEX-human Glucokinase 2.
Regarding the enzyme reaction, the measurement was carried out at 27° C. using a 96 well flat bottom plate. As the enzyme mixed liquid, 25 mM HEPES pH 7.4; 25 mM KCl; 2 mM MgCl2; 1 mM ATP; 0.1% BSA; 1 mM DTT; 0.8 mM NADP; 2.5 U/ml glucose-6-phosphate dehydrogenase; GST-hGK2 (all in final concentration, however, the amount of GST-hGK2 was adjusted in such a manner that increase of absorbance of the DMSO control in 10 minutes (ΔOD) becomes about 0.12) was prepared. The enzyme mixed liquid was dispensed in 89 μl portions into the aforementioned plate, and a test agent dissolved in DMSO or the DMSO control was added thereto in 1 μl portions. Subsequently, glucose (5 mM in final concentration) was added as the substrate solution in 10 μl portions and the reaction was started at 27° C.
After commencement of the reaction, the absorbance was measured at a wavelength of 340 nm for 15 minutes at intervals of about 30 seconds, and the GK activation of each compound was calculated from the increase of absorbance during the first 10 minutes (ΔOD). Index of the GK activation of each test agent was calculated from the following formula as the GK activation (%).
GK activation (%)=[(ΔODTest)−(ΔODCont)]/(ΔODCont)×100
ΔODTest: ΔOD at 10 μM test agent
ΔODCont: ΔOD of DMSO control

[3] = tested on: C57BL6 mice; experiment: Hypoglycemic action in C57BL6 mice; type: in vivo; conditions: 10 mg/kg oral, 1 hour after administration, freely ingesting C57BL6 mice
Method: Body weights of freely ingesting C57BL6 mice (N=5) were measured. Each test compound was dissolved in Cremophor (registered trademark) solvent (Cremophor:DMSO:Water 5:5:90, v/v/v) to a concentration of 1 mg/ml. To each mouse was orally administered 10 ml/kg of the agent liquid (corresponds to the test compound of 10 mg/kg) or 10 ml/kg of the solvent control. Just before the administration of the test compound, about 60 μl of blood was collected from the venous plexus of the fundus of the eye using a capillary. Blood was collected in the same manner 1 or 4 hours after the administration of the test compound. Blood plasma was separated from the thus collected blood to measure the blood glucose level. The blood glucose level after 1 or 4 hours of the administration of the test compound was compared with the blood glucose level of the solvent control group at the same period of time.

[4] = tested on: db/db (C57BL/KsJ-db/db) mice; experiment: Action upon high blood glucose level after oral glucose loading in db/db mice; type: in vivo; conditions: 10 mg/kg oral, fasted db/db mice, from administration until 2 hours after oral glucose loading (2 g/kg)
Method: After overnight fasting, body weights of db/db (C57BL/KsJ-db/db) mice (N=5) were measured. Each test compound was dissolved in Cremophor solvent (Cremophor:DMSO:Water 5:5:90, v/v/v) to a concentration of 1 mg/ml. To each db/db mouse was orally administered 10 ml/kg of the agent liquid (corresponds to the test compound of 10 mg/kg) or 10 ml/kg of the solvent control. Just before the administration of the test compound, about 60 μl of blood was collected from the venous plexus of the fundus of the eye using a capillary. After 30 minutes of the administration of the GK activator, 200 mg/ml of glucose aqueous solution was orally administered at a dose of 10 ml/kg (corresponds to 2 g/kg). Just before the administration of glucose, about 60 μl of blood was collected from the venous plexus of the fundus of the eye using a capillary. Blood was collected in the same manner after 0.5, 1 and 2 hours of the glucose administration. Blood plasma was separated from the thus collected blood to measure the blood glucose level. AUC of the blood glucose level after the administration of the test compound until 2 hours after the glucose loading was compared with AUC of the solvent control group within the same period of time.

Row | SMILES | activation at 10 µM [2] [%] | Blood glucose lowering ratio (%) [1] [%] | blood glucose level lowered in comparison with the solvent control group [3] [%] | AUC of the blood glucose level lowered in comparison with AUC of the solvent control group [4] [%]
1 | CS(=O)(=O)c1ccc([C@@H](CC2CCCC2)C(=O)Nc2nc(C(O)CO)cs2)cc1 (stereo partly drawn) [Ex 5, (2R)-3-cyclopentyl-N-[4-(1,2-dihydroxyethyl)-1,3-thiazol-2-yl]-2-[4-(methylsulfonyl)phenyl]propanamide] | 263 | – | – | –
2 | CC(=O)OCC(O)c1csc(NC(=O)/C(=C/C2CCCC2)c2ccc(S(C)(=O)=O)cc2)n1 (stereo not drawn) [Ex 44] | 283 | – | – | –
3 | O=C(Nc1nc(C(O)CO)cs1)[C@H](CC1CCCC1)c1ccc(S(=O)(=O)C2CC2)cc1 (stereo partly drawn) [Ex 66] | 267 | – | – | –
4 | O=C(Nc1nc(C(O)CO)cs1)C(CC1CCCC1)c1ccc(S(=O)(=O)C(F)(F)F)cc1 (stereo not drawn) [Ex 7, 3-cyclopentyl-N-[4-(1,2-dihydroxyethyl)-1,3-thiazol-2-yl]-2-{4-[(trifluoromethyl)sulfonyl]phenyl}propanamide] | 214 | – | – | –
5 | CS(=O)(=O)c1ccc([C@@H](CC2CCCC2)C(=O)Nc2nc(C(O)CO)c(Cl)s2)cc1 (stereo partly drawn) [Ex 49] | 273 | – | – | –
6 | CC1(C)OCC(c2csc(NC(=O)/C(=C/C3CCCC3)c3ccc(S(C)(=O)=O)c(Cl)c3)n2)O1 (stereo not drawn) [Ex 10, (2E)-2-[3-chloro-4-(methylsulfonyl)phenyl]-3-cyclopentyl-N-[4-(2,2-dimethyl-1,3-dioxolan-4-yl)-1,3-thiazol-2-yl]acrylamide] | 294 | – | – | –
7 | CC1(C)OCC(c2csc(NC(=O)/C(=C/C3CCCC3)c3ccc(S(C)(=O)=O)cc3)n2)O1 (stereo not drawn) [Ex 38, (2E)-3-cyclopentyl-N-[4-(2,2-dimethyl-1,3-dioxolan-4-yl)-1,3-thiazol-2-yl]-2-[4-(methylsulfonyl)phenyl]acrylamide] | 239 | – | – | –

Further lines, with some results ahead:

Row | activation at 10 µM [2] [%] | SMILES | Blood glucose lowering ratio (%) [1] [%] | blood glucose level lowered in comparison with the solvent control group [3] [%] | AUC of the blood glucose level lowered in comparison with AUC of the solvent control group [4] [%]
8 | 293 | O=C(Nc1nc([C@H](O)CO)cs1)/C(=C/C1CCCC1)c1ccc(S(=O)(=O)C2CC2)cc1 [Ex 13, (2E)-3-cyclopentyl-2-[4-(cyclopropylsulfonyl)phenyl]-N-{4-[(1S)-1,2-dihydroxyethyl]-1,3-thiazol-2-yl}acrylamide] | 19 | – | –
9 | 260 | CC(O)(CO)c1csc(NC(=O)[C@H](CC2CCCC2)c2ccc(S(=O)(=O)C3CC3)cc2)n1 (stereo partly drawn) [Ex 74, (2R)-3-cyclopentyl-2-[4-(cyclopropylsulfonyl)phenyl]-N-[4-(1,2-dihydroxy-1-methylethyl)-1,3-thiazol-2-yl]propanamide] | 23 | – | –
10 | 240 | O=C(Nc1nc(C(O)CCO)cs1)/C(=C/C1CCCC1)c1ccc(S(=O)(=O)C2CC2)cc1 (stereo not drawn) [Ex 71] | 22 | – | –
11 | 241 | CC(O)(CO)c1csc(NC(=O)/C(=C/C2CCCC2)c2ccc(S(=O)(=O)C3CC3)cc2)n1 (stereo not drawn) [Ex 63, (2E)-3-cyclopentyl-2-[4-(cyclopropylsulfonyl)phenyl]-N-[4-(1,2-dihydroxy-1-methylethyl)-1,3-thiazol-2-yl]acrylamide] | 35 | – | –
12 | 235 | CC(O)(CO)c1csc(NC(=O)/C(=C/C2CCCC2)c2ccc(S(=O)(=O)C3CCC3)cc2)n1 (stereo not drawn) [Ex 73, (2E)-2-[4-(cyclobutylsulfonyl)phenyl]-3-cyclopentyl-N-[4-(1,2-dihydroxy-1-methylethyl)-1,3-thiazol-2-yl]acrylamide] | 27 | – | –
13 | 299 | CS(=O)(=O)c1ccc(/C(=C\C2CCCC2)C(=O)Nc2nc(C(O)CO)cs2)cc1 (stereo not drawn) [Ex 6, (2E)-3-cyclopentyl-N-[4-(1,2-dihydroxyethyl)-1,3-thiazol-2-yl]-2-[4-(methylsulfonyl)phenyl]acrylamide] | – | 22 | –
14 | 244 | O=C(Nc1nc(CC(CO)CO)cs1)/C(=C/C1CCCC1)c1ccc(S(=O)(=O)C2CC2)cc1 [Ex 70, (2E)-3-cyclopentyl-2-[4-(cyclopropylsulfonyl)phenyl]-N-{4-[3-hydroxy-2-(hydroxymethyl)propyl]-1,3-thiazol-2-yl} acrylamide] | – | – | –
15 | 227 | O=C(Nc1nc(C(O)CO)cs1)/C(=C/C1CCCC1)c1ccc(S(=O)(=O)C2CCC2)cc1 (stereo not drawn) [Ex 62, (2E)-2-[4-(cyclobutylsulfonyl)phenyl]-3-cyclopentyl-N-[4-(1,2-dihydroxyethyl)-1,3-thiazol-2-yl]acrylamide] | 19 | – | –
16 | 249 | O=C(Nc1nc(C(O)CO)cs1)/C(=C/C1CCCC1)c1ccc(S(=O)(=O)C2CC2)cc1 (stereo not drawn) [Ex 45, (2E)-3-cyclopentyl-2-[4-(cyclopropylsulfonyl)phenyl]-N-[4-(1,2-dihydroxyethyl)-1,3-thiazol-2-yl]acrylamide] | 23 | – | 39
17 | 217 | O=C(Nc1nc(C(=O)CO)cs1)/C(=C/C1CCCC1)c1ccc(S(=O)(=O)C2CC2)cc1 [Ex 77, (2E)-3-cyclopentyl-2-[4-(cyclopropylsulfonyl)phenyl]-N-(4-glycoloyl-1,3-thiazol-2-yl)acrylamide] | 18 | – | –
